From patent US20080021042A1, “Composition For Controlling Neuropathic Pain” (priority 2004, published 2008)

Columns and labels:
[1] = test system: motor coordination; test: motor coordination test (mice rotating rod test, Rota-rod); format: in vivo, mouse; conditions: 30 mg/kg orally, 16 rpm, cut-off 60 seconds, FIG. 4
Protocol: The effect of the compound of Example 1 on motor coordination was evaluated by means of mice rotating rod test.
Five male BALB/c, 6-7 weeks old mice per group were used. The mouse was trained for 2 or more days so that it could remain on the Rota-rod treadmill (Ugo Basile) in 3 cm in diameter rotating at 16 rpm for at least 60 seconds when it was placed on the rod with the head directed against the direction of rotation. Before the evaluation, three trials were conducted with 10 min or more intervals and the mice which could remain on the rod more than 60 seconds in all three times were selected for the evaluation. The selected mice were divided into test groups.
The time obtained in the third trial was used as the before administration value. Mice were orally received 30 mg/kg of the compound of Example 1 or gabapentin and placed on the rotating rod. The duration of time the mouse remained on the rod was recorded. A cut-off time of 60 seconds was employed and when an animal could remain more than 60 seconds, the time was recorded as 60 seconds.

[2] = test system: neuropathic pain; conditions: oral administration, in general; cited from earlier work

## NCC1(CC(=O)O)CCCCC1 [gabapentin]
[1]
  duration of time the mouse remained on the rotating rod: no reduction of the remaining time
[2]
  onset of analgesic action: 1 to 2 h
